pIC50: −log10 of the molar value.
System: 817829-284-R-J1-PDC complex spheroids, viability
Assay: Anticancer human tumor 817829-284-R-J1-PDC patient-derived colon adenocarcinoma cell line growth inhibition [GQUAD]
Conditions: for pIC50: curve of first compound; for viability, T/C: stronger effect = lower value
In short: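 Tumor cells were grown as complex spheroids with HUVEC endothelial cells and mesenchymal stem cells as stroma. G-quadruplex stabilizers were combined with targeted agents over half-log dilutions from near the clinical Cmax, or from 10 microM.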

[1] = second compound 0.0316 µM, first compound 0.0316 µM
[2] = second compound 0.0316 µM, first compound 0.1 µM
[3] = second compound 0.0316 µM, first compound 0.316 µM
[4] = second compound 0.0316 µM, first compound 1 µM
[5] = second compound 0.0316 µM, first compound 3.16 µM
[6] = second compound 0.0316 µM, first compound 10 µM
[7] = second compound 0.1 µM, first compound 0.0316 µM
[8] = second compound 0.1 µM, first compound 0.1 µM
[9] = second compound 0.1 µM, first compound 0.316 µM
[10] = second compound 0.1 µM, first compound 1 µM
[11] = second compound 0.1 µM, first compound 3.16 µM
[12] = second compound 0.1 µM, first compound 10 µM
[13] = second compound 0.316 µM, first compound 0.0316 µM
[14] = second compound 0.316 µM, first compound 0.1 µM
[15] = second compound 0.316 µM, first compound 0.316 µM
[16] = second compound 0.316 µM, first compound 1 µM
[17] = second compound 0.316 µM, first compound 3.16 µM
[18] = second compound 0.316 µM, first compound 10 µM
[19] = second compound 1 µM, first compound 0.0316 µM
[20] = second compound 1 µM, first compound 0.1 µM
[21] = second compound 1 µM, first compound 0.316 µM
[22] = second compound 1 µM, first compound 1 µM
[23] = second compound 1 µM, first compound 3.16 µM
[24] = second compound 1 µM, first compound 10 µM
[25] = second compound 3.16 µM, first compound 0.0316 µM
[26] = second compound 3.16 µM, first compound 0.1 µM
[27] = second compound 3.16 µM, first compound 0.316 µM
[28] = second compound 3.16 µM, first compound 1 µM
[29] = second compound 3.16 µM, first compound 3.16 µM
[30] = second compound 3.16 µM, first compound 10 µM
[31] = second compound 10 µM, first compound 0.0316 µM
[32] = second compound 10 µM, first compound 0.1 µM
[33] = second compound 10 µM, first compound 0.316 µM
[34] = second compound 10 µM, first compound 1 µM
[35] = second compound 10 µM, first compound 3.16 µM
[36] = second compound 10 µM, first compound 10 µM
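Further: spheroids exposed to agents for 7 days before readout.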
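Wherever viability, T/C is given: percent viability relative to DMSO vehicle control taken as 100%.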

CC(C)n1c(=O)n(C)c2cnc3cc(F)c(-c4ccc(OCCCN5CCCCC5)nc4)cc3c21 + Cc1cnc(CNC(=O)c2c(=O)c3ccc(N4CCCN(C)CC4)nc3n3c2sc2ccccc23)cn1
pIC50 (second compound 0.0316 µM): > 7.50 | pIC50 (second compound 0.1 µM): > 7.50 | pIC50 (second compound 0.316 µM): > 7.50 | pIC50 (second compound 1 µM): > 7.50 | pIC50 (second compound 3.16 µM): > 7.50 | pIC50 (second compound 10 µM): > 7.50 | viability, T/C [1]: 37.7% | viability, T/C [2]: 32.1% | viability, T/C [3]: 36.5% | viability, T/C [4]: 25.1% | viability, T/C [5]: 26.6% | viability, T/C [6]: 12.1% | viability, T/C [7]: 30.4% | viability, T/C [8]: 27.3% | viability, T/C [9]: 31.3% | viability, T/C [10]: 23.4% | viability, T/C [11]: 22.9% | viability, T/C [12]: 14.6% | viability, T/C [13]: 23.7% | viability, T/C [14]: 28.1% | viability, T/C [15]: 23.1% | viability, T/C [16]: 21.5% | viability, T/C [17]: 24.4% | viability, T/C [18]: 9.33% | viability, T/C [19]: 19.7% | viability, T/C [20]: 21.1% | viability, T/C [21]: 21.9% | viability, T/C [22]: 23.1% | viability, T/C [23]: 24.2% | viability, T/C [24]: 8.09% | viability, T/C [25]: 16.6% | viability, T/C [26]: 18.5% | viability, T/C [27]: 19% | viability, T/C [28]: 21% | viability, T/C [29]: 18.8% | viability, T/C [30]: 7.12% | viability, T/C [31]: 0.15% | viability, T/C [32]: 0.17% | viability, T/C [33]: 0.18% | viability, T/C [34]: 0.17% | viability, T/C [35]: 0.18% | viability, T/C [36]: 0.18%

O=C(c1cc(Cc2n[nH]c(=O)c3ccccc23)ccc1F)N1CCN(C(=O)C2CC2)CC1 + CN(C)c1ccc(Nc2c3ccc(NC(=O)CCN4CCCC4)cc3nc3cc(NC(=O)CCN4CCCC4)ccc23)cc1
pIC50 (second compound 0.0316 µM): < 5.00 | pIC50 (second compound 0.1 µM): < 5.00 | pIC50 (second compound 0.316 µM): < 5.00 | pIC50 (second compound 1 µM): < 5.00 | pIC50 (second compound 3.16 µM): < 5.00 | pIC50 (second compound 10 µM): < 5.00 | viability, T/C [1]: 108% | viability, T/C [2]: 97.8% | viability, T/C [3]: 102% | viability, T/C [4]: 90.7% | viability, T/C [5]: 78.8% | viability, T/C [6]: 58.3% | viability, T/C [7]: 101% | viability, T/C [8]: 107% | viability, T/C [9]: 108% | viability, T/C [10]: 98.6% | viability, T/C [11]: 100% | viability, T/C [12]: 60.2% | viability, T/C [13]: 102% | viability, T/C [14]: 97.6% | viability, T/C [15]: 107% | viability, T/C [16]: 93% | viability, T/C [17]: 95.2% | viability, T/C [18]: 66.8% | viability, T/C [19]: 107% | viability, T/C [20]: 96.7% | viability, T/C [21]: 99% | viability, T/C [22]: 93.7% | viability, T/C [23]: 93.7% | viability, T/C [24]: 62.5% | viability, T/C [25]: 100% | viability, T/C [26]: 103% | viability, T/C [27]: 94.1% | viability, T/C [28]: 99.5% | viability, T/C [29]: 94.9% | viability, T/C [30]: 58.3% | viability, T/C [31]: 97.4% | viability, T/C [32]: 102% | viability, T/C [33]: 94.5% | viability, T/C [34]: 88.4% | viability, T/C [35]: 70.7% | viability, T/C [36]: 52.5%

COc1ccc([C@@H](O)c2cc(-c3ncnc4cc(N5CCOCC5)ccc34)c(F)cc2Cl)nn1 + Cc1cnc(CNC(=O)c2c(=O)c3ccc(N4CCCN(C)CC4)nc3n3c2sc2ccccc23)cn1
pIC50 (second compound 0.0316 µM): 6.62 | pIC50 (second compound 0.1 µM): > 7.50 | pIC50 (second compound 0.316 µM): > 7.50 | pIC50 (second compound 1 µM): > 7.50 | pIC50 (second compound 3.16 µM): > 7.50 | pIC50 (second compound 10 µM): > 7.50 | viability, T/C [1]: 81.7% | viability, T/C [2]: 75.5% | viability, T/C [3]: 41% | viability, T/C [4]: 31.2% | viability, T/C [5]: 27.9% | viability, T/C [6]: 20.9% | viability, T/C [7]: 42% | viability, T/C [8]: 37.5% | viability, T/C [9]: 31.9% | viability, T/C [10]: 24.2% | viability, T/C [11]: 24.2% | viability, T/C [12]: 19.3% | viability, T/C [13]: 27.7% | viability, T/C [14]: 29.7% | viability, T/C [15]: 24% | viability, T/C [16]: 22% | viability, T/C [17]: 22.8% | viability, T/C [18]: 18% | viability, T/C [19]: 25.1% | viability, T/C [20]: 25.6% | viability, T/C [21]: 25.1% | viability, T/C [22]: 17.7% | viability, T/C [23]: 18.2% | viability, T/C [24]: 12.7% | viability, T/C [25]: 21.2% | viability, T/C [26]: 22.7% | viability, T/C [27]: 21.6% | viability, T/C [28]: 17% | viability, T/C [29]: 15% | viability, T/C [30]: 8.95% | viability, T/C [31]: 0.12% | viability, T/C [32]: 0.16% | viability, T/C [33]: 0.18% | viability, T/C [34]: 0.23% | viability, T/C [35]: 0.2% | viability, T/C [36]: 0.19%

CCCS(=O)(=O)Nc1ccc(F)c(C(=O)c2c[nH]c3ncc(-c4ccc(Cl)cc4)cc23)c1F + Cc1[nH]c2ccc(F)cc2c1-c1nc2c3cccnc3c3ncccc3c2[nH]1
pIC50 (second compound 0.0316 µM): 5.23 | pIC50 (second compound 0.1 µM): 5.27 | pIC50 (second compound 0.316 µM): 5.23 | pIC50 (second compound 1 µM): 5.26 | pIC50 (second compound 3.16 µM): 7.17 | pIC50 (second compound 10 µM): 7.26 | viability, T/C [1]: 107% | viability, T/C [2]: 106% | viability, T/C [3]: 102% | viability, T/C [4]: 107% | viability, T/C [5]: 85% | viability, T/C [6]: 19.3% | viability, T/C [7]: 117% | viability, T/C [8]: 107% | viability, T/C [9]: 111% | viability, T/C [10]: 95.4% | viability, T/C [11]: 74.1% | viability, T/C [12]: 22.6% | viability, T/C [13]: 102% | viability, T/C [14]: 113% | viability, T/C [15]: 106% | viability, T/C [16]: 92% | viability, T/C [17]: 84.9% | viability, T/C [18]: 21.6% | viability, T/C [19]: 117% | viability, T/C [20]: 106% | viability, T/C [21]: 119% | viability, T/C [22]: 101% | viability, T/C [23]: 80.8% | viability, T/C [24]: 16.9% | viability, T/C [25]: 60.6% | viability, T/C [26]: 40.4% | viability, T/C [27]: 38% | viability, T/C [28]: 23.6% | viability, T/C [29]: 21.1% | viability, T/C [30]: 10.1% | viability, T/C [31]: 67.5% | viability, T/C [32]: 30.9% | viability, T/C [33]: 12% | viability, T/C [34]: 5.4% | viability, T/C [35]: 4.9% | viability, T/C [36]: 5.95%

CC(C)(O)C1CCC(Nc2ccc3ncc(-c4cccc(C(F)(F)F)c4)n3n2)CC1 (stereo not given) + Cc1[nH]c2ccc(F)cc2c1-c1nc2c3cccnc3c3ncccc3c2[nH]1
pIC50 (second compound 0.0316 µM): 5.60 | pIC50 (second compound 0.1 µM): 5.88 | pIC50 (second compound 0.316 µM): 6.02 | pIC50 (second compound 1 µM): 6.21 | pIC50 (second compound 3.16 µM): > 7.50 | pIC50 (second compound 10 µM): > 7.50 | viability, T/C [1]: 109% | viability, T/C [2]: 104% | viability, T/C [3]: 88.8% | viability, T/C [4]: 64% | viability, T/C [5]: 32.5% | viability, T/C [6]: 57.5% | viability, T/C [7]: 94.6% | viability, T/C [8]: 110% | viability, T/C [9]: 104% | viability, T/C [10]: 51.9% | viability, T/C [11]: 25.5% | viability, T/C [12]: 61.6% | viability, T/C [13]: 106% | viability, T/C [14]: 111% | viability, T/C [15]: 84.5% | viability, T/C [16]: 52% | viability, T/C [17]: 25.7% | viability, T/C [18]: 54.1% | viability, T/C [19]: 107% | viability, T/C [20]: 109% | viability, T/C [21]: 78.9% | viability, T/C [22]: 30.9% | viability, T/C [23]: 8.2% | viability, T/C [24]: 32.7% | viability, T/C [25]: 3.3% | viability, T/C [26]: 3.58% | viability, T/C [27]: 2.98% | viability, T/C [28]: 1.34% | viability, T/C [29]: 0.58% | viability, T/C [30]: 1.69% | viability, T/C [31]: 2.48% | viability, T/C [32]: 2.78% | viability, T/C [33]: 2.18% | viability, T/C [34]: 1.41% | viability, T/C [35]: 0.83% | viability, T/C [36]: 1.5%

Source: PubChem BioAssay AID2060503 (Molecular Pharmacology Branch, DTP, NCI, 2025)
